{"source": "patent US8686003B2", "about": "“Tissue non-specific alkaline phosphatase inhibitors and uses thereof for treating vascular calcification” (Sanford-Burnham Medical Research Institute, priority 2007, dated 2014)", "key": {"[1]": {"tested_on": "endogenous pyrophosphatase activity in aortic rat rings", "assay": "PPi hydrolysis by whole aortas ex vivo", "conditions": "30 μM; for PPi hydrolysis / % Inhibition: aortic rat rings ex vivo; for % Inhibition: inhibition of PPi hydrolysis", "description": "Rats were sacrificed and aortas perfused with Hanks salt solution to remove blood. The aortas were then removed and, after the adventitia was dissected away, were cut into rings approximately 2 mm in length. Four rings were placed in 1 ml of DMEM without serum containing the compounds to be tested. After 90 min at 37° C., sodium PPi (final concentration 1 μM) and [^32P]Pi (final concentration 1 μCurie/ml) were added and 6 samples were removed over 4 hours. Pi was separated from PPi by adding 800 μl of 0.028 M ammonium molybdate in 0.75 M H2SO4 to the samples and extracting with 1600 μl of isobutanol and petroleum ether (4:1). ^32P was counted in the organic phase by Cerenkov radiation. Hydrolysis of PPi was linear over 4 hours and the rate was determined by linear regression.\nFurthermore, to measure the degree of pyrophosphatase inhibition by the new TNAP inhibitors, an ex vivo organ culture system in whole aortas was used. For this analysis, rat rather than mouse aortas were selected, as they are larger and easier to dissect."}, "human TNAP": {"molecular_target": "T1, human TNAP (Homo sapiens, UniProt P05186)", "T1 construct": "made in house; host or cells: COS-1 cells, transient expression; dialyzed serum-free conditioned medium", "T1 sequence (P05186 18-502 limits assumed)": "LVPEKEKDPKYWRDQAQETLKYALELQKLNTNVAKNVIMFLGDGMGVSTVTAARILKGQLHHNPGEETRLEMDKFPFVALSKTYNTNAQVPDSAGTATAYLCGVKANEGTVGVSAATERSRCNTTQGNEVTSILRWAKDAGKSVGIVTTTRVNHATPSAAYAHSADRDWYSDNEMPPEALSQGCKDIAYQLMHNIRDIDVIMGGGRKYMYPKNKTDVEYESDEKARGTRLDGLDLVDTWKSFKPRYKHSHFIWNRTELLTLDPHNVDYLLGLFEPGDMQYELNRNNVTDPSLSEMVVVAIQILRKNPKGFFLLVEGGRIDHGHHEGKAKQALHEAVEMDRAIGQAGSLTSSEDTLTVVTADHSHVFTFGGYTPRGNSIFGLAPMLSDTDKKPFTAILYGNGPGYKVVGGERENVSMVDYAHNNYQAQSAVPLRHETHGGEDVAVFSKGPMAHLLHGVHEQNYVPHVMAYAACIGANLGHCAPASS", "assay": "Enzyme kinetic experiments, Ki and mechanism of TNAP inhibition", "assay_type": "biochemical", "conditions": "for Ki: pNPP substrate", "description": "Expression plasmids containing a secreted epitope-tagged TNAP, PLAP and IAP were transfected into COS-1 cells for transient expression using a standard electroporation method. Medium was replaced to Opti-MEM 24 hours later, and the serum free media containing secreted proteins were collected 60 hours after electroporation. Conditioned medium was dialyzed against TBS containing 1 mM MgCl2 ad 20 μM ZnCl2 (to remove phosphate) and filtrated with a 2 μm cellulose acetate filter.\n[…] TNAP, PLAP and IAP activities were adjusted to an approximate ΔA405 nm, equivalent to 1, measured after 30 min. Residual AP activity in the presence of inhibitors was expressed as percentage of the control activity. To investigate the mechanism of inhibition, double reciprocal plots of enzyme activity (expressed as mA405 nm min^−1) vs. substrate concentration were constructed, in the presence of various concentrations of added inhibitors (0-30 μM). The y-axis intercepts of the 1/v vs. 1/[S] plots, were then plotted vs. [I] to graphically extract Ki values as the x-intercept in this plot. […] Inhibitors were further tested and sorted based on their kinetic properties at pH 7.4 using PPi, the relevant natural substrate of TNAP. […] Amounts of released phosphate were measured using the Biomol Green Reagent (Biomol Research Laboratories, Inc., Plymouth Meeting, Pa.)."}, "Enpp1−/− VSMCs": {"tested_on": "Enpp1−/− VSMCs", "assay": "In vitro calcification (mineralization) of VSMC cultures", "assay_type": "cell-based, mouse", "conditions": "Enpp1−/− VSMC culture", "description": "Vascular SMCs were isolated from explants using a collagenase digestion method and the smooth muscle phenotype was confirmed by RT-PCR analysis for smooth muscle α-actin. One mouse aorta provided on average, 5×10^5 cells. These cells were cultured (in triplicate) at a density of 3×10^4 cells/cm^2 using α-MEM supplemented with β-glycerophosphate (10 mM) and 50 μg/ml ascorbic acid for 3 weeks. To quantify calcium deposited in these cultures, either the o-cresolphthalein complexone method^(31) or the standard Alizarin Red method was used."}, "[2]": {"conditions": "pH 7.5, 1 M Tris-HCl buffer, read-out: Ki (μM) @ pH 7.5"}, "[3]": {"conditions": "pH 9.8, 1 M DEA-HCl buffer, read-out: Ki (μM) @ pH 9.8"}}, "note": "“Also recorded” adds a separate entry of the source. Where two headings read alike, the source gives them in different places."}
{"smiles": "Cn1cnnc1SC(C(=O)c1ccccc1)c1ccccc1", "note": "(centres unmarked)", "values": [{"measurement": "PPi hydrolysis", "setting": "[1]", "value": "0.269 ± 0.032", "unit": "nmol/g/min"}, {"measurement": "% Inhibition", "setting": "[1]", "value": 15.9, "unit": "%"}, {"measurement": "Ki", "setting": "human TNAP; [2]", "value": "6.4 ± 1.6", "unit": "µM"}, {"measurement": "Ki", "setting": "human TNAP; [3]", "value": "5.6 ± 1.6", "unit": "µM"}]}
{"smiles": "O=C(CSc1nnc[nH]1)NCCOc1ccccc1", "values": [{"measurement": "PPi hydrolysis", "setting": "[1]", "value": "0.249 ± 0.046", "unit": "nmol/g/min"}, {"measurement": "% Inhibition", "setting": "[1]", "value": 22.2, "unit": "%"}, {"measurement": "Ki", "setting": "human TNAP; [2]", "value": "33 ± 5.8", "unit": "µM"}, {"measurement": "Ki", "setting": "human TNAP; [3]", "value": "5.6 ± 0.7", "unit": "µM"}]}
{"smiles": "Cn1ccnc1Sc1nc(Nc2ccccc2)nc(Nc2ccccc2)n1", "note": "[compound 5804079]", "values": [{"measurement": "inhibition of mineralization", "setting": "Enpp1−/− VSMCs", "value": "most inhibitory"}, {"measurement": "PPi hydrolysis", "setting": "[1]", "value": "0.192 ± 0.041", "unit": "nmol/g/min"}, {"measurement": "% Inhibition", "setting": "[1]", "value": 39.9, "unit": "%"}, {"measurement": "suppression of endogenous pyrophosphatase activity (ranking)", "setting": "[1]; rat whole aortas ex vivo", "value": "most effective"}, {"measurement": "potency at pH 7.5 compared with pH 9.8", "setting": "human TNAP", "value": "more potent at pH 7.5 than at pH 9.8"}, {"measurement": "potency relative to levamisole", "setting": "human TNAP; Ki at physiological pH", "value": "about 10 fold"}, {"measurement": "effect of competitive inhibitor Pi on potency", "setting": "human TNAP; pH 7.4, 0.1 mM pNPP, Na2HPO4 0-10 mM", "value": "does not affect the potency; also recorded: not affected by the presence of the competitive inhibitor Pi"}, {"measurement": "effect of PPi on degree of inhibition", "setting": "human TNAP; pH 7.4, 0.1 mM pNPP, pyrophosphate 0-40 mM", "value": "does not affect the degree of inhibition; also recorded: not affected by high concentrations of PPi"}, {"measurement": "Ki", "setting": "human TNAP; [2]", "value": "2.8 ± 0.4", "unit": "µM"}, {"measurement": "Ki", "setting": "human TNAP; [3]", "value": "6.5 ± 1.4", "unit": "µM"}]}
{"smiles": "c1ccc([C@H]2CN3CCSC3=N2)cc1", "note": "[levamisole, (6S)-6-phenyl-2,3,5,6-tetrahydro-imidazo[2,1-b][1,3]thiazole, reference compound]", "values": [{"measurement": "PPi hydrolysis", "setting": "[1]", "value": "0.252 ± 0.047", "unit": "nmol/g/min"}, {"measurement": "% Inhibition", "setting": "[1]", "value": 21.2, "unit": "%"}]}
